Laboratory results as given in patent US10822415B2, “Methods for enhancing the potency of the immune checkpoint inhibitors” (INSERM (INSTITUT NATIONAL DE LA SANTÉ ET DE LA RECHERCHE …, priority 2016, dated 2020).

Tests used:
[1] = system: Yumm murine melanoma cells; assay: SKI-I treatment with or without immune checkpoint antibody in mice with untransfected Yumm tumors; type: in vivo; conditions: mice harboring Yumm tumors, SKI-I combined with anti-PD-1
Protocol: Animal experiments were conducted in accordance with national and international policies, and our protocol was approved by the Regional Ethics Committee of Midi-Pyrenees. 3.105 of Yumm cell lines (Untransfected, shCtrl, shSK1 or shSK1(2)) were intradermally injected into the flank of 7-week-old C57BL/6 mice (Charles River, L'Arbresle, France). CD8-deficient C57BL/6 mice were a gift from Prof. J. van Meerwijk (INSERM U1043, Toulouse, France). Tumor volume was calculated using a caliper at the indicated days as described (Albinet, Bats et al. 2014). For combination experiments involving shCtrl or shSK1 Yumm cells, mice were challenged intradermally (i.d.) with 3.105 cells on day 0 on their right flank. Mice were then injected i.p. three times with anti-CTLA-4 (200 μg per mouse on D7 and 100 μg per mouse on D10 and D13), and/or with anti-PD-1 or isotype control antibody (200 μg per mouse on D5, D7 and D10). Tumor volumes were measured every 2-3 days. Anti-CTLA-4 (9H10), anti-PD-1 (RMP1-14) and isotype control (2A3) were purchased from BioXcell.
For SKI-I treatment, 5 days after Yumm or MC38 cell implantation, mice were treated or not with 50 mg/kg SKI-I (N′-[(2-hydroxynaphthalen-1-yl)methylidene]-3-(naphthalen-2-yl)-1H-pyrazole-5-carbohydrazide, Enamine) in 50 μl of a mixture of DMSO (10%), Cremophor (5%), Tween-80 (5%) and glucose (80%) (i.p.). […]

[2] = biological target: S1PR1 (Mus musculus, UniProt O08530); conditions: mice; by inhibiting tumor vascularization; cited from earlier work
Chain of S1PR1 (O08530 whole entry): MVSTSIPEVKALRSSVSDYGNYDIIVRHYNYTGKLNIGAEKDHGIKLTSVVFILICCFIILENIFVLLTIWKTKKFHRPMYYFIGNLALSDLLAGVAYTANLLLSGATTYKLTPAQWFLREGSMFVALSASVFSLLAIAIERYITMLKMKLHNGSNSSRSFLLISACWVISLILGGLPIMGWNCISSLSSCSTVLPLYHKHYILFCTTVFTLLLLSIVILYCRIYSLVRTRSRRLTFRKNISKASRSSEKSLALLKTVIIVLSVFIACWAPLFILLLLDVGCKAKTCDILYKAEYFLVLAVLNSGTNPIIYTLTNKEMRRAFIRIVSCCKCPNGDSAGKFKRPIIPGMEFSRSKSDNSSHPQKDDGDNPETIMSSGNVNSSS

Compound | efficacy of anti-PD-1 (tumor growth) [1] | melanoma progression [2]
O=C(N/N=C/c1c(O)ccc2ccccc12)c1cc(-c2ccc3ccccc3c2)n[nH]1 [SKI-I, N′-[(2-hydroxynaphthalen-1-yl)methylidene]-3-(naphthalen-2-yl)-1H-pyrazole-5-carbohydrazide] | enhanced the efficacy of anti-PD-1 | 
CCCCCCCCc1ccc(CCC(N)(CO)CO)cc1 [FTY720] |  | reduced melanoma progression
